From PMC5193436 (PLoS ONE, 2016)

Biological target: T1, Enolase 1 (αEnolase) (Homo sapiens, UniProt P06733)
T1 construct: gene ENO1; recombinant ENO1
Assay: direct spectrophotometric PEP assay ([…] nm) with purified recombinant ENO1; NADH-coupled assay in lysates
Type: biochemical

T1 sequence (P06733 2-434): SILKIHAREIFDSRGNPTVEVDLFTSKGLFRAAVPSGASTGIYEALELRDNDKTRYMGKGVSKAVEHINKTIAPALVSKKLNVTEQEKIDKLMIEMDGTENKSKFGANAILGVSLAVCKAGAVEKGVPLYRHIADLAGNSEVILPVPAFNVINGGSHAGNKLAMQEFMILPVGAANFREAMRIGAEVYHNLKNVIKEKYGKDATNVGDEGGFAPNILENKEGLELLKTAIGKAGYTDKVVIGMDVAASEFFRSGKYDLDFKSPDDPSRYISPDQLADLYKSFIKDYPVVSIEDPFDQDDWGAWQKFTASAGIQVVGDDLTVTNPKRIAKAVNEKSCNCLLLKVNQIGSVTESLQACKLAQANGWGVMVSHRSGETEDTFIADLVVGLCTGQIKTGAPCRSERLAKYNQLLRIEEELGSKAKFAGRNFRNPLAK

O=C1C(P(=O)(O)O)CC(O)N1O (stereo not shown) [SF2312, 3-dihydroxyphosphoryl-1,5-dihydroxy-2-pyrrolidone]
direct spectrophotometric PEP assay (240 nm) with purified recombinant ENO1; NAD: SF2312 (c) on Enolase activity in purified recombinant ENO1 and ENO2 was determined using the direct PEP-detection assay
